Test results as given in patent publication US20060069132A1, “Azolecarboxamide herbicides” (priority 2004, published 2006).

Columns and labels:
wheat = assay: Test B postemergence herbicide test; assay type: in vivo, Triticum aestivum; parameters: key to Wheat plant response rating: 0 = no effect, 100 = complete control; details: scale 0 (no effect) to 100 (complete control)
How it was run: (§1)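 Scale 0–100: zero equals no visible effect, 100 complete control, judged by eye relative to controls. Timing: 13 to 15 days in greenhouse post-treatment. Growth stage at spraying: two leaves (paddy) or one to four leaves, 2–18 cm (postemergence).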

velvetleaf [1] = assay: Test B pre-/postemergence herbicide test; assay type: in vivo, Abutilon theophrasti
How it was run: (§2)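 Greenhouse pot assay with simultaneous preemergence (treated seed) and postemergence (2–18 cm seedlings) applications of surfactant-containing, non-phytotoxic solvent formulations. Response scored visually 13–15 days later on a 0–100 scale, 100 meaning complete control.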

redroot pigweed = assay: Test A pre-/postemergence herbicide test; assay type: in vivo, Amaranthus retroflexus; details: for Plant response rating, Pigweed: Postemergence; for Pigweed plant response rating: Preemergence
How it was run: (§3)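 Seeds sown in sandy loam received a preemergence directed soil spray of compound in non-phytotoxic solvent with surfactant; postemergence plants (2–10 cm, one- to two-leaf stage) were sprayed to runoff at the same time. After ~10 days in greenhouse, injury was rated visually versus untreated controls (0 = no effect, 100 = complete control).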

corn = assay: Test B pre-/postemergence herbicide test; assay type: in vivo, Zea mays
How it was run: as §2

giant foxtail [2] = assay: Test B pre-/postemergence herbicide test; assay type: in vivo, Setaria faberi
How it was run: as §2

barnyardgrass [3] = assay: Test B pre-/postemergence herbicide test; assay type: in vivo, Echinochloa crus-galli
How it was run: as §2

blackgrass = assay: Test B postemergence herbicide test; assay type: in vivo, Alopecurus myosuroides; details: scale 0 (no effect) to 100 (complete control)
How it was run: (§4)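 Greenhouse test; postemergence application to plants at 1–4 leaves (2–18 cm); paddy species at 2 leaves; evaluated visually vs controls at 13–15 days; scale 0–100 (100 = complete control).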

velvetleaf [4] = assay: Test A pre-/postemergence herbicide test; assay type: in vivo, Abutilon theophrasti; details: for Velvetleaf plant response rating: Preemergence, visual rating, 0 to 100 scale (0 no effect, 100 complete control)
How it was run: as §3

rice [5] = assay: Test B flooded paddy test; assay type: in vivo, Oryza sativa; details: 1000 g ai/ha, visual rating, scale 0 to 100 (0 no effect, 100 complete control), 13 to 15 days
How it was run: as §4

large crabgrass [6] = assay: Test B pre-/postemergence herbicide test; assay type: in vivo, Digitaria sanguinalis
How it was run: as §2

barnyardgrass [7] = assay: Test A pre-/postemergence herbicide test; assay type: in vivo, Echinochloa crus-galli; details: for Plant response rating, Barnyardgrass: Postemergence; for Barnyardgrass plant response rating: Preemergence
How it was run: as §3

giant foxtail [8] = assay: Test A pre-/postemergence herbicide test; assay type: in vivo, Setaria faberi; details: for Plant response rating, Foxtail, Giant: Postemergence; for Foxtail, Giant plant response rating: Preemergence
How it was run: as §3

large crabgrass [9] = assay: Test A pre-/postemergence herbicide test; assay type: in vivo, Digitaria sanguinalis; details: for Plant response rating, Crabgrass, Large: Postemergence; for Crabgrass, Large plant response rating: Preemergence
How it was run: as §3

morningglory [10] = assay: Test B pre-/postemergence herbicide test; assay type: in vivo, Ipomoea coccinea
How it was run: as §2

pigweed = assay: Test B pre-/postemergence herbicide test; assay type: in vivo, Amaranthus retroflexus
How it was run: as §2

lambsquarters = assay: Test B pre-/postemergence herbicide test; assay type: in vivo, Chenopodium album
How it was run: as §2

cocklebur = assay: Test B pre-/postemergence herbicide test; assay type: in vivo, Xanthium strumarium
How it was run: as §2

barnyardgrass [11] = assay: Test B flooded paddy test; assay type: in vivo, Echinochloa crus-galli; details: 1000 g ai/ha, visual rating, scale 0 to 100 (0 no effect, 100 complete control), 13 to 15 days
How it was run: as §4

wild oat = assay: Test B postemergence herbicide test; assay type: in vivo, Avena fatua; details: scale 0 (no effect) to 100 (complete control)
How it was run: as §1

morningglory [12] = assay: Test A pre-/postemergence herbicide test; assay type: in vivo, Ipomoea spp.; details: for Plant response rating, Morningglory: Postemergence; for Morningglory plant response rating: Preemergence
How it was run: as §3

Surinam grass = assay: Test B pre-/postemergence herbicide test; assay type: in vivo, Urochloa decumbens
How it was run: as §2

[13] = system: small flower umbrella sedge; assay: Test B flooded paddy test; assay type: in vivo, Cyperus difformis; details: 1000 g ai/ha, visual rating, scale 0 to 100 (0 no effect, 100 complete control), 13 to 15 days
How it was run: as §4

ducksalad = assay: Test B flooded paddy test; assay type: in vivo, Heteranthera limosa; details: 1000 g ai/ha, visual rating, scale 0 to 100 (0 no effect, 100 complete control), 13 to 15 days
How it was run: as §4

rice [14] = assay: Test B pre-/postemergence herbicide test; assay type: in vivo, Oryza sativa; details: preemergence, 125 g ai/ha; 0 to 100 scale, 0 is no effect, 100 is complete control
How it was run: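 Species tested were Echinochloa crus-galli, Ipomoea coccinea, Xanthium strumarium and Oryza sativa, treated both before emergence and at the 1- to 4-leaf stage; rice and barnyardgrass were also tested under flooding at 2 leaves. Greenhouse incubation lasted 13–15 days before visual 0–100 scoring.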

[15] = Postemergence, 500 g ai/ha, visual rating after 13 to 15 days
[16] = postemergence, 125 g ai/ha, visual rating
[17] = Postemergence, 500 g ai/ha, visual rating after 13 to 15 days, scale 0 (no effect) to 100 (complete control)
[18] = postemergence, 125 g ai/ha, visual rating, scale 0 (no effect) to 100 (complete control)
[19] = preemergence, 125 g ai/ha, 0 to 100 scale, 0 is no effect, 100 is complete control
[20] = 500 g ai/ha, 0 to 100 scale, 0 no effect, 100 complete control
[21] = 2000 g ai/ha, 0 to 100 scale, 0 no effect, 100 complete control
[22] = 500 g ai/ha, visual rating, 0 to 100 scale (0 no effect, 100 complete control)
[23] = Preemergence, 500 g ai/ha, scale 0 to 100

Structure (SMILES): CCn1nc(C(C)(C)C)cc1C(=O)Nc1cccc2c1CCN(C1CCCC1)C2=O [Compound 66]
- Plant response rating, Wheat (wheat; [15]): 10
- Wheat plant response rating (wheat; [16]): 0
- Plant response rating, Velvetleaf (velvetleaf [1]; [17]): 10
- Velvetleaf plant response rating (velvetleaf [1]; [18]): 10
- Plant response rating, Velvetleaf (velvetleaf [1]; [19]): 0
- Plant response rating, Pigweed (redroot pigweed; [20]): 10
- Plant response rating, Pigweed (redroot pigweed; [21]): 10
- Pigweed plant response rating (redroot pigweed; [22]): 0
- Pigweed plant response rating (redroot pigweed; [21]): 0
- Plant response rating, Corn (corn; [17]): 20
- Corn plant response rating (corn; [23]): 0
- Corn plant response rating (corn; [18]): 10
- Plant response rating, Corn (corn; [19]): 0
- Plant response rating, Foxtail, Giant (giant foxtail [2]; [17]): 20
- Foxtail, Giant plant response rating (giant foxtail [2]; [23]): 10
- Foxtail, Giant plant response rating (giant foxtail [2]; [18]): 0
- Plant response rating, Foxtail, Giant (giant foxtail [2]; [19]): 0
- Plant response rating, Barnyardgrass (barnyardgrass [3]; [17]): 10
- Barnyardgrass plant response rating (barnyardgrass [3]; [23]): 30
- Barnyardgrass plant response rating (barnyardgrass [3]; [18]): 0
- Plant response rating, Barnyardgrass (barnyardgrass [3]; [19]): 0
- Plant response rating, Blackgrass (blackgrass; [15]): 20
- Blackgrass plant response rating (blackgrass; [16]): 0
- Plant response rating, Velvetleaf (velvetleaf [4]; Postemergence, 2000 g ai/ha, 0 to 100 scale, 0 no effect, 100 complete control): 0
- Velvetleaf plant response rating (velvetleaf [4]; 500 g ai/ha): 0
- Velvetleaf plant response rating (velvetleaf [4]; 2000 g ai/ha): 0
- Rice plant response rating (rice [5]): 0
- Plant response rating, Crabgrass, Large (large crabgrass [6]; [17]): 10
- Crabgrass, Large plant response rating (large crabgrass [6]; [23]): 10
- Crabgrass, Large plant response rating (large crabgrass [6]; [18]): 0
- Plant response rating, Crabgrass, Large (large crabgrass [6]; [19]): 0
- Plant response rating, Barnyardgrass (barnyardgrass [7]; [20]): 0
- Plant response rating, Barnyardgrass (barnyardgrass [7]; [21]): 0
- Barnyardgrass plant response rating (barnyardgrass [7]; [22]): 0
- Barnyardgrass plant response rating (barnyardgrass [7]; [21]): 20
- Plant response rating, Foxtail, Giant (giant foxtail [8]; [20]): 0
- Plant response rating, Foxtail, Giant (giant foxtail [8]; [21]): 0
- Foxtail, Giant plant response rating (giant foxtail [8]; [22]): 0
- Foxtail, Giant plant response rating (giant foxtail [8]; [21]): 0
- Plant response rating, Crabgrass, Large (large crabgrass [9]; [20]): 0
- Plant response rating, Crabgrass, Large (large crabgrass [9]; [21]): 0
- Crabgrass, Large plant response rating (large crabgrass [9]; [22]): 0
- Crabgrass, Large plant response rating (large crabgrass [9]; [21]): 0
- Plant response rating, Morningglory (morningglory [10]; [17]): 20
- Morningglory plant response rating (morningglory [10]; [18]): 20
- Plant response rating, Morningglory (morningglory [10]; [19]): 0
- Plant response rating, Pigweed (pigweed; [17]): 30
- Pigweed plant response rating (pigweed; [18]): 20
- Plant response rating, Pigweed (pigweed; [19]): 0
- Plant response rating, Lambsquarters (lambsquarters; [17]): 70
- Lambsquarters plant response rating (lambsquarters; [18]): 60
- Plant response rating, Lambsquarters (lambsquarters; [19]): 0
- Plant response rating, Cocklebur (cocklebur; [17]): 30
- Cocklebur plant response rating (cocklebur; [23]): 0
- Cocklebur plant response rating (cocklebur; [18]): 20
- Plant response rating, Cocklebur (cocklebur; [19]): 0
- Barnyardgrass plant response rating (barnyardgrass [11]): 10
- Plant response rating, Oat, Wild (wild oat; [15]): 10
- Oat, Wild plant response rating (wild oat; [16]): 10
- Plant response rating, Morningglory (morningglory [12]; [20]): 0
- Plant response rating, Morningglory (morningglory [12]; [21]): 0
- Morningglory plant response rating (morningglory [12]; [22]): 0
- Morningglory plant response rating (morningglory [12]; [21]): 0
- Plant response rating, Surinam Grass (Surinam grass; [17]): 10
- Surinam Grass plant response rating (Surinam grass; [18]): 10
- Plant response rating, Surinam Grass (Surinam grass; [19]): 0
- Sedge, Umbrella plant response rating [13]: 10
- Ducksalad plant response rating (ducksalad): 0
- Plant response rating, Rice (rice [14]): 0
